Patent publication US9849151B2, “Salacia compositions, methods of treatment by their administration, and methods of their preparation” (priority 2013, dated 2017)

Columns and labels:
[1] = Antioxidant activity by DPPH assay; settings: at 20 μM
Description: The capacity of plant extracts or fractions to directly react with and quench free radicals was evaluated as described earlier (Cheng et al 2006). A stock solution of DPPH (200 μM) was prepared in ethanol. The assay was performed in 96-well plates. The reaction mixture, containing 100 μL of DPPH and 100 μL of test sample, was incubated at 37° C. for 30 min. The absorbance was measured at 515 nm. Gallic acid was used as a positive control. Percent DPPH radical scavenging activity was calculated as follows. [Reference: Cheng Z, Morre J, Yub L (2006) J Agric Food Chem, 54: 7429-7436] % radical scavenging activity=[1−(sample-blank)/(control-blank)]×100

[2] = tested on: 3T3L1 cells; assay: Lipolysis assay, glycerol release in 3T3L1 adipocytes; type: cell-based; settings: 24 h, Salacia composition 100 ug/ml, isoproterenol 10 uM, ratio higher than 1.40 = enhances lipolysis
Description: The assay is carried out to assess the ability of the extracts to breakdown triglycerides to glycerol and free fatty acids. The Salacia composition, such as that of Example 1 was screened for lipolysis in 3T3L1 cell model. 3T3L1 preadipocytes were cultured for a week in Dulbecco modified Eagle's medium (DMEM) supplemented with 10% new calf serum, 25 mM glucose, 2 mM glutamine, 100 U/ml penicillin, 100 ug/ml streptomycin at 37° C. in 5% CO2 atmosphere until 100% confluence. Two days after confluence, the differentiation of 3T3L1 into adipocytes was initiated using (DMEM) supplemented with 10% fetal bovine serum (FBS), 25 mM glucose, 2 mM glutamine, 100 U/ml penicillin, 100 ug/ml streptomycin and differentiation inducers (0.5 mM isobutyl-methylxanthine (IBMX), 10 μg/ml insulin and 1 μM dexamethasone) for 48 h (day 0-day 2). The cells were then cultured for another 48 h with the same medium containing only 10 μg/ml insulin (day 2 to day 4), then with only the medium (day 4 to day 6). The Salacia composition, such as that of Example 1 was added to the medium at the concentration 100 ug/ml for 24 h and assessed for lipolysis. […] The glycerol released after 24 h in the cell media was assessed using glycerol reagent (sigma) and expressed relative to the cellular protein content. The protein content was assessed using bicinchoninic acid (BCA) PierceTM kit. […]

[3] = tested on: Hormone Sensitive lipase (HSL); assay: Hormone Sensitive Lipase assay, Western blot densitometry of adipocyte lysates; type: cell-based; settings: 3T3L1 adipocytes treated 24 h, non-treated = 1.00
Description: The glycerol released after 24 h in the cell media was assessed using glycerol reagent (sigma) and expressed relative to the cellular protein content. The protein content was assessed using bicinchoninic acid (BCA) PierceTM kit. […] Proteins were collected from cell lysates of 3T3L1 adipocytes treated for 24 h with the Salacia composition or isoproterenol. Protein samples were blotted and probed for total hormone sensitive lipase (HSL), and phosphorylated hormone sensitive lipase at […]. Then, the ratio of phosphorylated-HSL to total HSL was compared between treated and non-treated samples.

SMILES: O=C(O)c1cc(O)c(O)c(O)c1 [Gallic acid]
- % radical scavenging activity (DPPH) [1]: 86%

SMILES: CC(C)NCC(O)c1ccc(O)c(O)c1 (centres unmarked) [Isoproterenol]
- Glycerol/protein ratio [2]: 1.50
- Phospho-HSL (densitometry) ([3]; Serine 563): 2.63
- Ratio phosphorylated-HSL/Total HSL [3]: 1.01
- Total HSL (densitometry) [3]: 2.60
